Measured values taken from US6784137B2, “6-aryl-4-aminopicolinates and their use as herbicides” (Dow AgroSciences LLC, priority 2001, dated 2004).
Like-named read-outs stand apart in the source and are kept apart here.

Assays:
[1] = test system: Cocklebur (Xanthium strumarium); assay: Postemergence herbicidal activity, greenhouse spray; format: in vivo; conditions: visual score after 2 weeks
Description: (§1) When required to ensure good germination and healthy plants, a fungicide treatment and/or other chemical or physical treatment was applied. The plants were grown for 7-21 days in a greenhouse with an approximate 15 hr photoperiod which was maintained at about 23-29° C. during the day and 22-28° C. during the night. Nutrients and water were added on a regular basis and supplemental lighting was provided with overhead metal halide 1000-Watt lamps as necessary. The plants were employed for testing when they reached the first or second true leaf stage. A weighed amount, determined by the highest rate to be tested, of each test compound was placed in a 20 mL glass vial and was dissolved in 4 mL of a 97:3 v/v (volume/volume) mixture of acetone and dimethyl sulfoxide (DMSO) to obtain concentrated stock solutions. […] The concentrated stock solutions obtained were diluted with an aqueous mixture containing acetone, water, isopropyl alcohol, DMSO, At plus 411 F crop oil concentrate, and Triton X-155 surfactant in a 48.5:39:10:1.5:1.0:0.02 v/v ratio to obtain spray solutions of known concentration. The solutions containing the highest concentration to be tested were prepared by diluting 2 mL aliquots of the stock solution with 13 mL of the mixture and lower concentrations were prepared by serial dilution of the stock solution. Approximately 1.5 mL aliquots of each solution of known concentration were sprayed evenly onto each of the test plant pots using a DeVilbiss atomizer driven by compressed air pressure of 2 to 4 psi (140 to 280 kiloPascals) to obtain thorough coverage of each plant. Control plants were sprayed in the same manner with the aqueous mixture. […] The treated plants and control plants were placed in a greenhouse as described above and watered by sub-irrigation to prevent wash-off of the test compounds.

[2] = test system: Yellow nutsedge (Cyperus esculentus); assay: as above; format: in vivo; conditions: visual score after 2 weeks
Description: as §1

[3] = test system: Lambsquarter (Chenopodium album); assay: as above; format: in vivo; conditions: visual score after 2 weeks
Description: as §1

[4] = test system: Barnyardgrass (Echinochloa crus-galli); assay: as above; format: in vivo; conditions: visual score after 2 weeks
Description: as §1

[5] = Xanthium strumarium, post-emergence, 336 h, Table 1, rate 125 ppm, read-out: Post-emergent % control XANST
[6] = Cyperus, post-emergence, 336 h, Table 1, rate 125 ppm, read-out: Post-emergent % control CYPES
[7] = Chenopodium album, post-emergence, 336 h, Table 1, rate 125 ppm, read-out: Post-emergent % control CHEAL
[8] = Echinochloa crus-galli, post-emergence, 336 h, Table 1, rate 125 ppm, read-out: Post-emergent % control ECHCG
[9] = Table 1, rate 500 ppm, 0 no injury, 100 complete kill

SMILES: COC(=O)c1nc(-c2ccc(C)nn2)cc(N)c1Cl [Compound 121, Methyl 4-amino-3-chloro-6-(3-(6-methyl)pyridazinyl)pyridine-2-carboxylate]
- Post-emergent % control XANST ([1]; Table 2, rate 125 ppm): 100%
- Post-emergent % control CYPES ([2]; Table 2, rate 125 ppm): 80%
- Post-emergent % control CHEAL ([3]; Table 2, rate 125 ppm): 90%
- Post-emergent % control ECHCG ([4]; Table 2, rate 125 ppm): 80%

SMILES: Nc1cc(-c2cc3ccccc3s2)nc(C(=O)O)c1Cl [Compound 224, 4-Amino-3-chloro-6-(2-benzothienyl)pyridine-2-carboxylic acid]
- melting point: 176 °C
- pest or weed control at 125 ppm [1, 5]: 100%
- pest or weed control at 125 ppm [2, 6]: 30%
- pest or weed control at 125 ppm [3, 7]: 100%
- pest or weed control at 125 ppm [4, 8]: 85%

SMILES: COC(=O)c1nc(-c2ccc(Cl)cc2Cl)c(F)c(NC(C)=O)c1Cl [Compound 49, Methyl 4-acetamido-3-chloro-5-fluoro-6-(2,4-dichlorophenyl)pyridine-2-carboxylate]
- melting point: 178 to 179 °C
- pest or weed control at 125 ppm [1, 5]: 100%
- pest or weed control at 125 ppm [2, 6]: 30%
- pest or weed control at 125 ppm [3, 7]: 80%
- pest or weed control at 125 ppm [4, 8]: 10%

SMILES: Nc1cc(-c2cc3ccccc3o2)nc(C(=O)O)c1Cl [Compound 219, 4-Amino-6-(2-benzofuranyl)-3-chloropyridine-2-carboxylic acid]
- melting point: 151 °C
- pest or weed control at 250 ppm ([1]; Xanthium strumarium, post-emergence, 336 h, Table 1, rate 250 ppm, read-out: Post-emergent % control XANST): 100%
- pest or weed control at 250 ppm ([2]; Cyperus, post-emergence, 336 h, Table 1, rate 250 ppm, read-out: Post-emergent % control CYPES): 0%
- pest or weed control at 250 ppm ([3]; Chenopodium album, post-emergence, 336 h, Table 1, rate 250 ppm, read-out: Post-emergent % control CHEAL): 100%
- pest or weed control at 250 ppm ([4]; Echinochloa crus-galli, post-emergence, 336 h, Table 1, rate 250 ppm, read-out: Post-emergent % control ECHCG): 80%

SMILES: COC(=O)c1nc(-c2ccccc2F)cc(N)c1Cl [Compound 33, Methyl 4-amino-3-chloro-6-(2-fluorophenyl)pyridine-2-carboxylate]
- pest or weed control at 500 ppm ([1]; Xanthium strumarium, post-emergence, 336 h, Table 1, rate 500 ppm, 0 no injury, 100 complete kill, read-out: Post-emergent % control XANST): 100%
- pest or weed control at 500 ppm ([2]; Cyperus, post-emergence, 336 h, Table 1, rate 500 ppm, read-out: Post-emergent % control CYPES): 10%
- pest or weed control at 500 ppm ([3]; Chenopodium album, post-emergence, 336 h, Table 1, rate 500 ppm, read-out: Post-emergent % control CHEAL): 100%
- pest or weed control at 500 ppm ([4]; Echinochloa crus-galli, post-emergence, 336 h, Table 1, rate 500 ppm, read-out: Post-emergent % control ECHCG): 30%

SMILES: Nc1c(Cl)c(C(=O)O)nc(-c2ccc(C(F)(F)F)cc2)c1Cl [Compound 171, 4-Amino-3′,5-dichloro-6-[4-(trifluoromethyl)phenyl]pyridine-2-carboxylic acid]
- Post-emergent % control XANST [1, 9]: 100%
- Post-emergent % control CYPES ([2]; Table 1, rate 500 ppm): 60%
- Post-emergent % control CHEAL ([3]; Table 1, rate 500 ppm): 95%
- Post-emergent % control ECHCG ([4]; Table 1, rate 500 ppm): 80%

SMILES: COC(=O)c1nc(-c2ccc(Cl)s2)cc(N)c1Cl [Compound 98, Methyl 4-amino-3-chloro-6-(5-chloro-2-thienyl)pyridine-2-carboxylate]
- pest or weed control at 125 ppm [1, 5]: 90%
- pest or weed control at 125 ppm [2, 6]: 70%
- pest or weed control at 125 ppm [3, 7]: 90%
- pest or weed control at 125 ppm [4, 8]: 50%

SMILES: Nc1c(F)c(C(=O)O)nc(-c2ccc(C(F)(F)F)cc2)c1F [Compound 200, 4-Amino-3,5-fluoro-6-(4-(trifluoromethyl)phenyl)pyridine-2-carboxylic acid]
- Post-emergent % control XANST [1, 9]: 100%
- Post-emergent % control XANST ([1]; Table 2, rate 125 ppm): 90%
- Post-emergent % control CYPES ([2]; Table 1, rate 500 ppm): 90%
- Post-emergent % control CYPES ([2]; Table 2, rate 125 ppm): 90%
- Post-emergent % control CHEAL ([3]; Table 1, rate 500 ppm): 95%
- Post-emergent % control CHEAL ([3]; Table 2, rate 125 ppm): 80%
- Post-emergent % control ECHCG ([4]; Table 1, rate 500 ppm): 95%
- Post-emergent % control ECHCG ([4]; Table 2, rate 125 ppm): 70%

SMILES: Nc1c(F)c(-c2ccc(Cl)cc2)nc(C(=O)O)c1Cl [Compound 183, 4-Amino-3-chloro-5-fluoro-6-(4-chlorophenyl)pyridine-2-carboxylic acid]
- pest or weed control at 125 ppm ([1]; Xanthium strumarium, post-emergence, 336 h, Table 2, rate 125 ppm, read-out: Post-emergent % control XANST): 100%
- pest or weed control at 125 ppm ([2]; Cyperus, post-emergence, 336 h, Table 2, rate 125 ppm, read-out: Post-emergent % control CYPES): 100%
- pest or weed control at 125 ppm ([3]; Chenopodium album, post-emergence, 336 h, Table 2, rate 125 ppm, read-out: Post-emergent % control CHEAL): 100%
- pest or weed control at 125 ppm ([4]; Echinochloa crus-galli, post-emergence, 336 h, Table 2, rate 125 ppm, read-out: Post-emergent % control ECHCG): 100%

SMILES: Nc1cc(-c2ccccc2Cl)nc(C(=O)O)c1Cl [Compound 140, 4-Amino-3-chloro-6-(2-chlorophenyl)pyridine-2-carboxylic acid]
- melting point: 196 to 197 °C

SMILES: COC(=O)c1nc(-c2ccc(OC)c(OC)c2)cc(NC(C)=O)c1Cl [Compound 63, Methyl 4-acetamido-3-chloro-6-(3,4-dimethoxyphenyl)pyridine-2-carboxylate]
- melting point: 153 to 154 °C

SMILES: Nc1cc(-c2ccc(OC(F)(F)F)cc2)nc(C(=O)O)c1Cl [Compound 174, 4-Amino-3-chloro-6-[4-(trifluoromethoxy)phenyl]pyridine-2-carboxylic acid]
- melting point: 164 to 165 °C

SMILES: Nc1cc(-c2ccsc2)nc(C(=O)O)c1Cl [Compound 216, 4-Amino-3-chloro-6-(3-thienyl)pyridine-2-carboxylic acid]
- melting point: 184 °C

SMILES: Nc1cc(-c2cncnc2)nc(C(=O)O)c1Cl [Compound 228, 4-Amino-3-chloro-6-(5-pyrimidinyl)pyridine-2-carboxylic acid]
- melting point: 180 °C

SMILES: CCCCOCCOC(=O)c1nc(-c2ccc(Cl)cc2)c(F)c(N)c1Cl [Compound 245, 2-Butoxyethyl 4-amino-3-chloro-5-fluoro-6-(4-chlorophenyl)pyridine-2-carboxylate]
- melting point: 103 to 104 °C

SMILES: COC(=O)c1nc(-c2cc(OC)ccc2OC)cc(NC(C)=O)c1Cl [Compound 81, Methyl 4-acetamido-3-chloro-6-(2,5-dimethoxyphenyl)pyridine-2-carboxylate]
- melting point: 124 to 125 °C

SMILES: COC(=O)c1nc(-c2c(F)cccc2F)cc(NC(C)=O)c1Cl [Compound 55, Methyl 4-acetamido-3-chloro-6-(2,6-difluorophenyl)pyridine-2-carboxylate]
- melting point: 156 to 157 °C

SMILES: Nc1cc(-c2ccccn2)nc(C(=O)O)c1Cl [Compound 214, 4-Amino-3-chloro-6-(2-pyridinyl)pyridine-2-carboxylic acid]
- melting point: 185 °C (dec.)

SMILES: Cc1ccc(-c2cc(N)c(Cl)c(C(=O)O)n2)cc1Cl [Compound 164, 4-Amino-3-chloro-6-(3-chloro-4-methylphenyl)pyridine-2-carboxylic acid]
- melting point: 188 °C

SMILES: COC(=O)c1nc(-c2ccc(Cl)cc2OC)cc(N)c1Cl [Compound 68, Methyl 4-amino-3-chloro-6-(4-chloro-2-methoxyphenyl)pyridine-2-carboxylate]
- melting point: 152 to 154 °C

SMILES: Nc1cc(-c2ccc(F)cc2F)nc(C(=O)O)c1Cl [Compound 145, 4-Amino-3-chloro-6-(2,4-difluorophenyl)pyridine-2-carboxylic acid]
- melting point: 206 °C (dec.)

SMILES: Nc1cc(-c2cnccn2)nc(C(=O)O)c1Cl [Compound 220, 4-Amino-3-chloro-6-(2-pyrazinyl)pyridine-2-carboxylic acid]
- melting point: 172 to 173 °C

SMILES: COc1ccc(-c2cc(N)c(Cl)c(C(=O)O)n2)cc1C [Compound 193, 4-Amino-3-chloro-6-(4-methoxy-3-methylphenyl)pyridine-2-carboxylic acid]
- melting point: 131 °C

SMILES: COC(=O)c1nc(-c2cccnc2)cc(N)c1Cl [Compound 102, Methyl 4-amino-3-chloro-6-(3-pyridyl)pyridine-2-carboxylate]
- melting point: 144 to 146 °C

SMILES: COC(=O)c1nc(-c2ccc(CF)cc2)cc(N)c1Cl [Compound 243, methyl 4-amino-3-chloro-6-(4-fluoromethylphenyl)pyridine-2-carboxylate]
- melting point: 95 to 97 °C

SMILES: Cc1ccc(-c2cc(N)c(Cl)c(C(=O)O)n2)s1 [Compound 218, 4-Amino-3-chloro-6-(5-methyl-2-thienyl)pyridine-2-carboxylic acid]
- melting point: 175 to 176 °C

SMILES: COC(=O)c1nc(-c2nc3ccccc3s2)cc(N)c1Cl [Compound 9, Methyl 4-amino-3-chloro-6-(2-benzthiazolyl)pyridine-2-carboxylate]
- melting point: 224 °C

SMILES: COC(=O)c1nc(-c2ccccc2F)cc(N)c1Cl [Compound 37, Methyl 4-amino-3-chloro-6-(2-fluorophenyl)pyridine-2-carboxylate]
- melting point: 121 to 122 °C
